Test system: human OA chondrocytes
Assay: IL-1β stimulation of human OA chondrocytes: ZCCHC6, ZCCHC11 and IL-6 expression (TaqMan, ELISA, Western immunoblotting)
Format: cell-based
Description: Chondrocytes were derived by enzymatic digestion of human cartilage obtained from OA patients (n=14) undergoing knee joint replacement. Chondrocytes were stimulated with IL-1β (5 ng/ml) or treated with Actinomycin D (5 μg/ml) or NFκB inhibitor SC514 (75 μM) or JNK inhibitor (25 μM). Total RNA from grounded cartilage and from chondrocytes was purified using Qiagen RNeasy kit (Qiagen). Reverse transcription was performed using the Quantitect Reverse Transcription kit and the ZCCHC6 or IL-6 mRNA was quantified using TaqMan assays. SiRNA-mediated depletion of ZCCHC6 in human chondrocytes was used to study the effect on inflammatory cytokine expression using a cytokine array (Ray Biotech). Protein expression of IL-6 was studied using Western immunoblotting and quantified by ELISA in culture supernatants. Results were derived using Sigma Plot 12.3 package and p<0.05 was considered significant.
We next determined whether IL-1β induces expression of IL-6 correlates with the expression of ZCCHC6 in human OA chondrocytes. Human OA chondrocytes were cultured and treated with IL-1β as above and the mRNA expression of IL-6 was quantified by TaqMan assay and secreted IL-6 was quantified using an ELISA kit specific for human IL-6 (R&D Systems, Catalog No. D0650, sensitivity of 2.17 pg IL-6/ml). ZCCHC6 protein expression was determined by Western immunoblotting using an antibody specific for the N-terminus of the protein (Santa Cruz, sc-137947).

[1] = human OA chondrocytes stimulated with IL-1β (5 ng/ml) for 24 h

For “IL-1β: major cytokine involved in cartilage catabolism in osteoarthritis; used to stimulate chondrocytes”, the “expression of ZCCHC6 protein (Western immunoblotting)” value [1] was “highly induced”, the “secreted IL-6 in the culture medium (ELISA)” value [1] was “secreted large amounts of IL-6” and the “expression of ZCCHC11” value (human chondrocytes treated with IL-1β) was “marginally upregulated”.

Reference: patent US20190101533A1, “ANIMAL MODEL FOR STUDYING ZCCHC6 IN BONE DISEASE AND DEVELOPMENT” (Northeast Ohio Medical University, priority 2016, published 2019)
